Data on 15 compounds can be found in patent US20220267331A1, “DOPAMINE-B-HYDROXYLASE INHIBITORS” (BIAL - PORTELA & CA, S.A., priority 2019, published 2022).

For orientation: remaining activity means the activity still measured, relative to the control. As usually defined, the IC50 is the point on the concentration scale where inhibition reaches its midpoint. A low value points to inhibition by little substance.

Where a name gives a salt, the structure may show the parent alone.

This assay addresses T1, DβH (Homo sapiens, UniProt P09172).
T1 construct: 125 μL of plasma (or saline for blank reaction or standard curve); tissue Instituto Português do Sangue Transplantação, Centro Sangue Transplantação, Porto, Portugal; host or cells: human plasma from healthy donors
T1 sequence (P09172 40-617 limits assumed): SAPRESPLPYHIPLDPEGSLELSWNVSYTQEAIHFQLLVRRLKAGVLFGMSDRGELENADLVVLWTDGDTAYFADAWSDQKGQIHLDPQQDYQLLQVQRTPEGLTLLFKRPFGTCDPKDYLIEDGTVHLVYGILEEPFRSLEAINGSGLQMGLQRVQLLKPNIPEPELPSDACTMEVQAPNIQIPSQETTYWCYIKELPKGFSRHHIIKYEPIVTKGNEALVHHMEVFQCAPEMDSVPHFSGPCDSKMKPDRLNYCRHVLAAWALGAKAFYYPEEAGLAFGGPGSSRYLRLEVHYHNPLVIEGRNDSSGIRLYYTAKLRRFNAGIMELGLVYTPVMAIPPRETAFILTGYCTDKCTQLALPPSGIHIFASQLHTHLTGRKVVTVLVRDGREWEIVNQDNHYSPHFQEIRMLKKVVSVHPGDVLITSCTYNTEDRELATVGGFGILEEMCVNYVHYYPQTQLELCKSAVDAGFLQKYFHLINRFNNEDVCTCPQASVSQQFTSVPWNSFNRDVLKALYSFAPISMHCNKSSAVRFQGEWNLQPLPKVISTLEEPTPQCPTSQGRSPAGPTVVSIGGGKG
The assay can be described thus: Dopamine-β-hydroxylase inhibition assay in human plasma. It counts as biochemical. The conditions noted are these: for remaining activity at 0.01 µM / DβH (0.01 μM): DβH activity in human plasma at 0.01 μM inhibitor; for remaining activity at 0.1 µM / DβH (0.1 μM): DβH activity in human plasma at 0.1 μM inhibitor; for IC50: human plasma, curve fitting of 6 concentrations (100 nM to 0.3 nM). The procedure: The ability of a compound to inhibit DβH activity may be assessed in human plasma using the following assay.
Dopamine beta hydroxylase activity in human plasma was measured by the method of Nagatsu and Udenfriend (Nagatsu, T. and Udenfriend, S. “Photometric assay of dopamine-p-hydroxylase activity in human blood.” Clin. Chem. 18(9) 980-983, 1972) with minor modifications. Catalase, N-ethylmaleimide, tyramine, disodium fumarate, pargyline, sodium acetate, ascorbic acid, copper sulfate and octopamine were obtained from Sigma Chemical Co., St. Louis, Mo. 63178. Human plasma samples were obtained from healthy donors (Instituto Português do Sangue Transplantação, Centro Sangue Transplantação, Porto, Portugal). From date of collection, plasma was stored at −80° C. until use. Test compounds were initially prepared in dimethyl sulfoxide at a concentration of 10 mM and diluted in dimethyl sulfoxide to the required concentrations. Test compounds were further diluted in ultrapure water to a concentration 20-fold to that of the final concentration to be tested. Final concentrations of test compounds were 10 and 100 nM. The various reagents used to make up the incubation buffer were premixed and consisted of the following components: sodium acetate buffer (1 M, pH 5.0, 18 mL), sodium fumarate (0.2 M, 4.5 mL), ascorbic acid (0.2 M, 4.5 ml, freshly prepared), pargyline (20 mM, freshly prepared, 4.5 mL), N-ethylmaleimide (0.2 M, 4.5 mL), catalase (10 000 U/mL, 9 mL), copper sulfate (20 μM, 4.5 mL) and 4.5 ultrapure water. The standard incubation mixture (total volume, 950 μL) contained: 50 μL of compound or vehicle (dimethyl sulfoxide 2%); 700 μL of incubation buffer; 125 μL of plasma (or saline for blank reaction or standard curve); 75 μL of saline. The reaction mixture was placed in water bath, shaking at 37° C. and pre-incubated for 10 minutes. Tyramine (0.5 M) was added and incubation proceeded for 45 minutes. The reaction contents were exposed to air. A sample of enzyme preparation (with 125 μL of plasma) that had been added perchloric acid 2 M at the end of the pre-incubation period was used as blank. A blank for each of the tested compounds was used. For octopamine standard curve, perchloric acid 2 M was replaced by increasing concentrations of octopamine prepared in perchloric acid 2 M (0.5, 1, 2.5, 5, 7.5, 10, 15, 20 μg/mL, final concentration). The incubation was stopped by adding 200 μL of 2 M molar perchloric acid, and the mixture was centrifuged at 9000 g for 5 min. The supernatant fluid (800 μL) was transferred to a column (SPE cartridge ISOLUTE SCX-3, 100 mg) and centrifuged at 150 g for 2 min. The column was washed two more times with 0.5 ml of ultrapure water by centrifuging at 150 g for 2 min. The adsorbed octopamine was eluted twice with 0.3 mL of 4 M ammonium hydroxide by centrifuging at 150 g for 2 min. Octopamine in the eluate was then converted to p-hydroxybenzaldehyde by adding 200 μL of sodium periodate (2%) and incubating for 6 min. Excess periodate was than reduced by adding 200 μL of sodium metabisulfite (10%). Absorbance was measured at […] in a 96-well plate by use of a SpectraMAX plus 384 (Molecular Devices) with software SOFTmax® PRO Software 5.3 spectrophotometer. Absorbance was linear with octopamine concentration from 0.5 to 20 μg/mL. Dopamine beta hydroxylase activity is determined as nmol of octopamine formed/mL of plasma/hour and effect of compounds is presented as % control. Results are reported in the table below as activity in % of control at the inhibitor concentration tested.
IC50 values of selected compounds were calculated based on curve fitting of results of 6 different compound concentrations (100 nM to 0.3 nM). IC50 data are reported in nM concentration.

`Fc1ccc(F)c([C@H]2Cc3c(CCCN4CCOCC4)[nH]c(=S)n3C2)c1F` [Example 6, (R)-1-(3-morpholinopropyl)-6-(2,3,6-trifluorophenyl)-2,5,6,7-tetrahydro-3H-pyrrolo[1,2-c]imidazole-3-thione] displayed a remaining activity at 0.01 µM of 63.6%, a remaining activity at 0.1 µM of 10.4% and an IC50 of 11.6 nM.
The corresponding values for `Fc1ccc(F)c([C@H]2Cc3c(CCCNCC4CCOCC4)[nH]c(=S)n3C2)c1F` [Example 3, (R)-1-(3-(((tetrahydro-2H-pyran-4-yl)methyl)amino)propyl)-6-(2,3,6-trifluorophenyl)-2,5,6,7-tetrahydro-3H-pyrrolo[1,2-c]imidazole-3-thione] are 57.3%, 15.5% and 9.5 nM.
The corresponding values for `Fc1ccc(Cl)c(F)c1[C@]12C[C@H]1c1c(CCCN3CCOCC3)[nH]c(=S)n1C2` [Example 15, (5aS,6aR)-5a-(3-chloro-2,6-difluorophenyl)-1-(3-morpholinopropyl)-5,5a,6,6a-tetrahydrocyclopropa[3,4]pyrrolo[1,2-c]imidazole-3(2H)-thione hydrochloride] are 13.6%, 1% and 2.7 nM.
In turn, `Fc1ccc(Cl)cc1[C@]12C[C@H]1c1c(CCCN[C@H]3CCCOC3)[nH]c(=S)n1C2` [Example 21, (5aS,6aR)-5a-(5-chloro-2-fluorophenyl)-1-(3-(((S)-tetrahydro-2H-pyran-3-yl)amino)propyl)-5,5a,6,6a-tetrahydrocyclopropa[3,4]pyrrolo[1,2-c]imidazole-3(2H)-thione] showed a remaining activity at 0.01 µM of 45.3% and a remaining activity at 0.1 µM of 8.5%.
Consider `Cl.NCCCc1[nH]c(=S)n2c1C[C@H](c1c(F)ccc(F)c1F)C2` [Example 4, (R)-1-(3-aminopropyl)-6-(2,3,6-trifluorophenyl)-2,5,6,7-tetrahydro-3H-pyrrolo[1,2-c]imidazole-3-thione hydrochloride], for which the “DβH (0.01 μM)” value is 82.7 % of Control and the “DβH (0.1 μM)” value is 54.2 % of Control.
Turning to `Fc1ccc(Cl)cc1[C@]12C[C@H]1c1c(CCCN3CCOCC3)[nH]c(=S)n1C2` [Example 16, (5aS,6aR)-5a-(5-chloro-2-fluorophenyl)-1-(3-morpholinopropyl)-5,5a,6,6a-tetrahydrocyclopropa[3,4]pyrrolo[1,2-c]imidazole-3(2H)-thione], the remaining activity at 0.01 µM was 36.2%, the remaining activity at 0.1 µM worked out at 3.3% and inhibition was half-maximal at 7.7 nM (IC50).
On the same counts, the results for `Fc1ccc(Cl)c(F)c1[C@]12C[C@H]1c1c(CCCN3CCCC3)[nH]c(=S)n1C2` [Example 19, (5aS,6aR)-5a-(3-chloro-2,6-difluorophenyl)-1-(3-(pyrrolidin-1-yl)propyl)-5,5a,6,6a-tetrahydrocyclopropa[3,4]pyrrolo[1,2-c]imidazole-3(2H)-thione] are 17%, 1% and 3 nM.
For the compound `CN(C)CCCc1[nH]c(=S)n2c1C[C@H](c1c(F)ccc(F)c1F)C2.Cl` [Example 10, (R)-1-(3-(dimethylamino)propyl)-6-(2,3,6-trifluorophenyl)-2,5,6,7-tetrahydro-3H-pyrrolo[1,2-c]imidazole-3-thione hydrochloride], the “DβH (0.01 μM)” value is listed as 86.2 % of Control and the “DβH (0.1 μM)” value was 45.8 % of Control.
`CN(C)CCCc1[nH]c(=S)n2c1C[C@H](c1c(F)ccc(F)c1F)C2` [Example 8, (R)-1-(3-(dimethylamino)propyl)-6-(2,3,6-trifluorophenyl)-2,5,6,7-tetrahydro-3H-pyrrolo[1,2-c]imidazole-3-thione]: the “DβH (0.01 μM)” value is 113.4 % of Control and the remaining activity at 0.1 µM came out at 52.8%.
`Fc1ccc(Cl)c(F)c1[C@]12C[C@H]1c1c(CCCNC3CCOCC3)[nH]c(=S)n1C2` [Example 18, (5aS,6aR)-5a-(3-chloro-2,6-difluorophenyl)-1-(3-((tetrahydro-2H-pyran-4-yl)amino)propyl)-5,5a,6,6a-tetrahydrocyclopropa[3,4]pyrrolo[1,2-c]imidazole-3(2H)-thione] yielded a remaining activity at 0.01 µM of 20.1%, a remaining activity at 0.1 µM of 1% and an IC50 of 4 nM.
On the same counts, the results for `Fc1ccc(Cl)cc1[C@]12C[C@H]1c1c(CCCN3CCCC3)[nH]c(=S)n1C2` [Example 20, (5aS,6aR)-5a-(5-chloro-2-fluorophenyl)-1-(3-(pyrrolidin-1-yl)propyl)-5,5a,6,6a-tetrahydrocyclopropa[3,4]pyrrolo[1,2-c]imidazole-3(2H)-thione] are 53.4%, 9.1% and 9.8 nM.
`Fc1ccc(F)c([C@H]2Cc3c(CCCN4CC[C@@H](F)C4)[nH]c(=S)n3C2)c1F` [Example 11, (R)-1-(3-((R)-3-fluoropyrrolidin-1-yl)propyl)-6-(2,3,6-trifluorophenyl)-2,5,6,7-tetrahydro-3H-pyrrolo[1,2-c]imidazole-3-thione]: the “DβH (0.01 μM)” value was 40.6 % of Control, the “DβH (0.1 μM)” value is listed as 7.7 % of Control and the concentration for half-maximal inhibition (IC50) is 7.2 nM.
Compound `Fc1ccc(F)c([C@H]2Cc3c(CCCNC4CCOCC4)[nH]c(=S)n3C2)c1F` [Example 5, (R)-1-(3-((tetrahydro-2H-pyran-4-yl)amino)propyl)-6-(2,3,6-trifluorophenyl)-2,5,6,7-tetrahydro-3H-pyrrolo[1,2-c]imidazole-3-thione] came in with a remaining activity at 0.01 µM of 42.5%, a remaining activity at 0.1 µM of 5.4% and a 50% inhibitory concentration (IC50) of 12.7 nM.
`CN(CCCc1[nH]c(=S)n2c1C[C@H](c1c(F)ccc(F)c1F)C2)C1CCOCC1` [Example 12, (R)-1-(3-(methyl(tetrahydro-2H-pyran-4-yl)amino)propyl)-6-(2,3,6-trifluorophenyl)-2,5,6,7-tetrahydro-3H-pyrrolo[1,2-c]imidazole-3-thione] gave a remaining activity at 0.01 µM of 71.2%, a remaining activity at 0.1 µM of 18.9% and an IC50 of 20.9 nM.
Consider `CN(CCCc1[nH]c(=S)n2c1C[C@H](c1c(F)ccc(F)c1F)C2)C1CCOCC1.Cl` [Example 14, (R)-1-(3-(methyl(tetrahydro-2H-pyran-4-yl)amino)propyl)-6-(2,3,6-trifluorophenyl)-2,5,6,7-tetrahydro-3H-pyrrolo[1,2-c]imidazole-3-thione hydrochloride], for which the “DβH (0.01 μM)” value is 73.2 % of Control, the “DβH (0.1 μM)” value is on record as 19.0 % of Control and the IC50 was 33.1 nM.
